pEC50: −log10 of the molar value.
target: T1, hFXR (Homo sapiens, UniProt Q96RI1); assay: In Vitro FXR Assay (TK): TK-ECRE-luc reporter in transfected CV-1 cells; type: cell-based; conditions: 18 hrs, luminescence, maximum efficacy of <25% of the Fexarmine control classified as '+'
T1 construct: expressed in transfected cells; host or cells: CV-1 cells
T1 sequence (Q96RI1 1-486): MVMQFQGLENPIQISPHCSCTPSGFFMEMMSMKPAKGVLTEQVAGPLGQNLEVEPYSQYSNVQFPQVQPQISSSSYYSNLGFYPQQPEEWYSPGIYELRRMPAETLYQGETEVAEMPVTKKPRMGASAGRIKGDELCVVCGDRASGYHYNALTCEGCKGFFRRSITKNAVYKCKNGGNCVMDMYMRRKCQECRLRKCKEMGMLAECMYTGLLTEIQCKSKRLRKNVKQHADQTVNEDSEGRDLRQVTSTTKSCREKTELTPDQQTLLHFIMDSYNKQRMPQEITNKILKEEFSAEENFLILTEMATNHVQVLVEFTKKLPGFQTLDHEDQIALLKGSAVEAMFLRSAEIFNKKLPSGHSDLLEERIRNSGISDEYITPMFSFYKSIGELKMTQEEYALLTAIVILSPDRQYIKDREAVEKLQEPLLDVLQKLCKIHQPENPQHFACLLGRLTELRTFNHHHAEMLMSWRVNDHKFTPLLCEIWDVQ
T1 sequence (P19793 1-462 partner): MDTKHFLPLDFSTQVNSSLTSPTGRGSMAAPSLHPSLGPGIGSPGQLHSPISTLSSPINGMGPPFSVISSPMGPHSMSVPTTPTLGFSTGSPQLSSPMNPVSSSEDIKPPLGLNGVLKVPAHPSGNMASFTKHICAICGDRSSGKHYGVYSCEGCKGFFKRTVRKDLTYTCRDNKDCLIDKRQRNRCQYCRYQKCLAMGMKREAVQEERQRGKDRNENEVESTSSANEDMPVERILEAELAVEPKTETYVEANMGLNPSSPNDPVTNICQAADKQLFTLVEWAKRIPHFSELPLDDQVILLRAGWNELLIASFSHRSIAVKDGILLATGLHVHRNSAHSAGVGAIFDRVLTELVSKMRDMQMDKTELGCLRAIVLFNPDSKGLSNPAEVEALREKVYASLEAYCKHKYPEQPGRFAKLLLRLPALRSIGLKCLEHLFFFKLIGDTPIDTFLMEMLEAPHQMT
Method in brief: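 Transiently transfected monkey CV-1 cells (hFXR, hRXR, TK-ECRE-luciferase, YFP control plasmid), held in stripped-serum DMEM, received compound dilutions from DMSO for 18 h at 37 °C. Activity was taken from luminescence of the cell lysates.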

| Compound | pEC50 |
| --- | --- |
| CNC(=O)O[C@H]1CC[C@H](C(=O)N(C[C@H]2CC[C@H](c3ccc(OC)c(C)n3)CC2)c2cccc(-c3coc(C4CC4)n3)c2)CC1 [Compound 5.32, trans-4-((3-(2-Cyclopropyloxazol-4-yl)phenyl)((trans-4-(5-methoxy-6-methylpyridin-2-yl)cyclohexyl)methyl)carbamoyl)cyclohexyl methylcarbamate] | ≥ 6.60 |
| CNC(=O)O[C@H]1CC[C@H](C(=O)N(C[C@H]2CC[C@H](c3ccc(OC)c(C#N)n3)CC2)c2cc(-c3cnc(C4CC4)s3)ccn2)CC1 [Compound 5.07, trans-4-(((trans-4-(6-Cyano-5-methoxypyridin-2-yl)cyclohexyl)methyl)(4-(2-cyclopropylthiazol-5-yl)pyridin-2-yl)carbamoyl)cyclohexyl methylcarbamate] | ≥ 6.60 |
| CNC(=O)O[C@H]1CC[C@H](C(=O)N(C[C@H]2CC[C@H](c3ccc(OC)c(C#N)c3)CC2)c2cccc(-c3cnn(C4CC4)c3)c2)CC1 [Compound 5.14, trans-4-(((trans-4-(3-Cyano-4-methoxyphenyl)cyclohexyl)methyl)(3-(1-cyclopropyl-1H-pyrazol-4-yl)phenyl)carbamoyl)cyclohexyl methylcarbamate] | ≥ 6.60 |

Now from value to compound:

| pEC50 | Compound |
| --- | --- |
| ≥ 6.60 | COc1ccc([C@H]2CC[C@H](CN(c3cccc(-c4coc(C(C)C)n4)c3)C(=O)[C@H]3CC[C@H](OC(=O)NCCCO)CC3)CC2)nc1C [Compound 6.49, trans-4-((3-(2-Isopropyloxazol-4-yl)phenyl)((trans-4-(5-methoxy-6-methylpyridin-2-yl)cyclohexyl)methyl)carbamoyl)cyclohexyl (3-hydroxypropyl)carbamate] |
| ≥ 6.60 | COc1ncc([C@H]2CC[C@H](CN(c3cc(-c4coc(C5CC5)n4)ccn3)C(=O)[C@H]3CC[C@H](OC(=O)N4CC(O)C4)CC3)CC2)cc1C [Compound 7.94, trans-4-((4-(2-Cyclopropyloxazol-4-yl)pyridine-2-yl)((trans-4-(6-methoxy-5-methylpyridin-3-yl)cyclohexyl)methyl)carbamoyl)cyclohexyl 3-hydroxyazetidine-1-carboxylate] |
| ≥ 6.60 | COc1ccc([C@H]2CC[C@H](CN(c3cc(-c4coc(C5CC5)n4)ccn3)C(=O)[C@H]3CC[C@H](OC(=O)N4CC(C(C)(C)C)C4)CC3)CC2)nc1C [Compound 7.103, trans-4-((4-(2-Cyclopropyloxazol-4-yl)pyridine-2-yl)((trans-4-(5-methoxy-6-methylpyridin-2-yl)cyclohexyl)methyl)carbamoyl)cyclohexyl 3-(tert-butyl)azetidine-1-carboxylate] |
